Test [1] relates to mushroom tyrosinase (mTYR). The test is described as follows: Mushroom tyrosinase inhibition assay. The format is biochemical, Agaricus bisporus. To be noted: for IC50: mushroom tyrosinase, L-tyrosine substrate. How it is done:
The tyrosinase inhibitory activity assays on the synthesized DHIT derivatives 1a – 1 k was performed using mushroom tyrosinase (mTYR), as previously described with minor modification. […] The optical densities of dopachrome produced during incubation were measured using a microplate reader (VersaMax™, Molecular Devices, Sunnyvale, CA, USA) at 492 nm. […] All experiments were conducted in triplicate. To calculate the tyrosinase inhibitory activities, the following formula was used: % inhibition = [(1− (A/B)) × 100], where A is test sample optical density and B is the optical density of the non-treated control.
IC50 values were calculated by plotting linear regression curves of percentage inhibitions versus derivative concentrations. The negative control was obtained by adding dimethyl sulfoxide (DMSO) instead of a DHIT derivative.

In test [2] the target is mushroom tyrosinase (mTYR) (Agaricus bisporus, UniProt C7FF04). In words: Kinetics of mTYR inhibition (Lineweaver-Burk plots). The format is biochemical. As to conditions: for mode of mTYR inhibition: Lineweaver-Burk plots, L-tyrosine; for Vmax: independent of inhibitor concentration. How it is done: Lineweaver-Burk double reciprocal plots were used to determine their inhibitory modes of action. Kinetic analyses were carried out using four concentrations of DHIT derivatives 1b (0, 0.0625, 0.125, or 0.25 μM) and 1f (0, 1, 2, or 4 μM) in the presence of different concentrations of L-tyrosine (0.5, 1, 2, 4, 8, or 16 mM for 1b and 1, 2, 4, or 8 mM for 1f). Lineweaver-Burk double reciprocal plots produced four different lines with different slopes, corresponding to the four concentrations, for each derivative. […] KM values were 1.515, 7.846, 15.740, and 23.586 mM at […], and 3.758, 4.892, 5.206, and 8.127 mM at 0, 1, 2, and 4 μM of 1f, respectively. […] The binding abilities of compounds 1b and 1f to the active site of tyrosinase were also supported by in silico docking simulation results (Figs. 5 and 6).
Lineweaver-Burk plots were used to determine modes of mTYR inhibition. Compounds 1b or 1f (10 μL, final concentrations: 0, 0.0625, 0.125, or 0.25 μM for 1b and 0, 1, 2 or 4 μM for 1f) and mTYR solution (20 μL, 150 units) were added to a 96-well plate containing 170 μL of a mixture containing aqueous L-tyrosine solution at final concentrations of 0.5, 1.0, 2.0, 4.0, 8.0, or 16 mM for 1b or 1.0, 2.0, 4.0, or 8.0 mM for 1f; aqueous L-tyrosine solution, distilled water, and 50 mM potassium phosphate buffer (pH 6.5) in the ratio 10:9:10. Initial rates of dopachrome formations in reaction mixtures were calculated by measuring increases in optical density at 492 nm (ΔOD492/min) using a microplate reader (VersaMax^TM, Molecular Devices, Sunnyvale, CA, USA). Maximum velocities of tyrosinase-L-tyrosine reactions were determined using Lineweaver-Burk plots (inverse of reaction velocity (1/V) versus the inverse of L-tyrosine concentration (1/[S])) obtained using 4 – 5 different concentrations of L-tyrosine. Modes of tyrosinase inhibition were determined using convergence points of plots.

Test [3] has as its system B16F10 cells. The test is described as follows: Intracellular melanin content in B16F10 cells. It is filed as cell-based, murine. As to conditions: 48 h; for intracellular melanin production compared with kojic acid: α-MSH + IBMX; for intracellular melanin production: 5, 10, 20 μM, α-MSH 1 μM + IBMX 200 μM. The protocol:
To determine whether the inhibitory effects of compounds 1b and 1f on cellular TYR influence melanogenesis, cellular melanin production was measured. As was performed in TYR inhibition experiments, B16F10 cells co-stimulated with α -MSH and IBMX were used to compare the inhibitory effects of 1b and 1f on melanogenesis. Kojic acid was used as the positive control. […] Intracellular melanin contents were determined by measuring optical densities at 405 nm.
(§1) The inhibitory effects of compounds 1b and 1f on intracellular melanin contents were investigated as previously described. B16F10 cells were seeded at a density of 1 × 10^5 cells/well in 6-well plates and incubated in a humidified 5% CO2 atmosphere for 24 h at 37 °C. […] For extracellular melanin contents, the optical density of the cell culture media was directly measured at 405 nm. On the other hand, for intracellular melanin contents, the following procedure was performed. Briefly, after washing twice with PBS, adherent cells were detached by incubation in Trypsin/EDTA for 1 min. Pellets were dissolved in 100 μL of 1 N NaOH and then incubated for 1 h at 60 °C to dissolve the melanin. Intracellular melanin was quantified by measuring optical densities at 405 nm using a microplate reader (VersaMax^TM, Molecular Devices, Sunnyvale, CA, USA). Results were normalized versus cell pellet total protein using BCA protein assay reagent using BSA as the standard (Thermo Scientific, Rockford, IL, USA). The intracellular melanin contents were calculated using the following equation: (ΔODsample/ΔODcontrol) × 100%; where ΔODsample = the optical density of the test compound, and ΔODcontrol = the optical density of control. Experiments were performed in triplicate.

The test system of test [4] is B16F10 cells. In words: Extracellular melanin (melanin level in medium) of B16F10 cells. It is filed as cell-based, murine. To be noted: 48 h; for melanin levels in media compared with kojic acid: α-MSH + IBMX; for melanin levels in media: 5, 10, 20 μM, α-MSH 1 μM + IBMX 200 μM. How it is done:
To determine whether melanin levels in cell culture media were influenced by compounds 1b or 1f, melanin contents in B16F10 cell culture media after treatments with derivatives at different concentrations in the presence of α -MSH and IBMX for 48 h were analyzed by measuring optical densities at 405 nm using a microplate reader.
as §1

“Also recorded” adds a separate entry of the source.

Chain of mushroom tyrosinase (mTYR) (Agaricus bisporus, UniProt C7FF04) (C7FF04 1-392): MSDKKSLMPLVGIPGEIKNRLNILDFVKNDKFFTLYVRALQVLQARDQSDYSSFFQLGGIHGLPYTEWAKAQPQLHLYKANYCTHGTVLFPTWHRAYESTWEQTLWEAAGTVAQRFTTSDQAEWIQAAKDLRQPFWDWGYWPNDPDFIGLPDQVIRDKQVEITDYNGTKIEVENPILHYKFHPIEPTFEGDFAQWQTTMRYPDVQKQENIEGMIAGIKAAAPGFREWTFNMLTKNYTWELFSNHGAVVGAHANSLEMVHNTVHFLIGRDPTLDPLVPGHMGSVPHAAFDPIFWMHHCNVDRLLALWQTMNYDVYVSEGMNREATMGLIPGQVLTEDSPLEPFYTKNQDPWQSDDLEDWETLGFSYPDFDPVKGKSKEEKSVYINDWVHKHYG

On to `COc1ccc(/C=c2\sc3n(c2=O)CCN=3)cc1O` [Compound 1f, (Z)-2-(3-Hydroxy-4-methoxybenzylidene)-5,6-dihydroimidazo[2,1-b]thiazol-3(2H)-one], for which the “mushroom tyrosinase inhibition compared with kojic acid” value in test [1] was “inhibited mTYR more than kojic acid”. In test [1], this compound returned an IC50 of 17100 ± 1010 nM. In addition, the “fold stronger tyrosinase inhibitor than kojic acid” value in test [1] (ratio of IC50 values) came out at 4.9 fold. The “mode of mTYR inhibition” value in test [2] is listed as “competitive inhibitors; also recorded: competitively inhibited”. Moreover, the Ki in test [2] (at 1 μM of 1f) was 3310 nM; in test [2] (at 2 μM of 1f), 5190 nM; in test [2] (at 4 μM of 1f), 3440 nM. Further, the Vmax in test [2] came out at 0.0103 mM/min. In the test with B16F10 cells [3] (1f at 20 μM, kojic acid 20 μM), the “intracellular melanin production compared with kojic acid” value is on record as “stronger inhibitory effect on melanogenesis than kojic acid”. In the test with B16F10 cells [3], the intracellular melanin production entry was “significantly and concentration-dependently suppressed this increase”. In addition, the “melanin levels in media compared with kojic acid” value in the test with B16F10 cells [4] (1f at 20 μM) is “suppressed these increases more than kojic acid at 20 μM”. For the same compound, the “melanin levels in media” value with B16F10 cells [4] was “significantly and concentration-dependently suppressed these increases”.
`O=c1/c(=C/c2ccc(O)cc2O)sc2n1CCN=2` [Compound 1b, (Z)-2-(2,4-Dihydroxybenzylidene)-5,6-dihydroimidazo[2,1-b]thiazol-3(2H)-one]: in test [1], the “mushroom tyrosinase inhibition compared with kojic acid” value is recorded as “inhibited mTYR more than kojic acid” and the IC50 is 880 ± 910 nM. Besides, the “fold more potent tyrosinase inhibition than MHY773” value in test [1] (ratio of IC50 values) is on record as ~3.3 fold. In addition, in test [2], the “mode of mTYR inhibition” value is “competitive inhibitors; also recorded: competitively inhibited” and the Vmax came out at 0.0126 mM/min. This compound came in with a Ki in test [2] (at 0.0625 μM of 1b) of 15 nM. Besides, in test [2] (at 0.125 μM of 1b), affinity was put at a Ki of 13.3 nM. For the same compound, in test [2] (at 0.25 μM of 1b), the Ki was determined as 17.2 nM. For the same compound, the “intracellular melanin production compared with kojic acid” value in the test on B16F10 cells [3] (1b at 5 μM) is “by the same extent as kojic acid at 20 μM”. Further, in the test with B16F10 cells [3], the intracellular melanin production entry is “significantly and concentration-dependently suppressed this increase”. Besides, in the test on B16F10 cells [4] (1b at 5 μM), the “melanin levels in media compared with kojic acid” value is “suppressed these increases more than kojic acid at 20 μM”. The “melanin levels in media” value in the test on B16F10 cells [4] was “significantly and concentration-dependently suppressed these increases”.

In general, IC50 refers to the concentration that gives 50% inhibition. Lower therefore signals higher potency. For orientation: Ki means the equilibrium dissociation constant of an inhibitor or competing ligand from its target. Lower therefore signals higher affinity. The term Vmax denotes the rate approached at saturating substrate.

The values are drawn from publication PMC8861568, “Identification of (Z)-2-benzylidene-dihydroimidazothiazolone derivatives as tyrosinase inhibitors: Anti-melanogenic effects and in silico studies” (Computational and Structural Biotechnology Journal, 2022).
